Patent US11547101B2, “Non-human animals having a disruption in a C9ORF72 locus” (Regeneron Pharmaceuticals, Inc., priority 2015, dated 2023)

Experiments:
[1] = tested on: cultured wild type motor neurons; assay: Survival of cultured embryonic stem cell-derived wild type motor neurons treated with BMAA (cell counts, trypan blue); format: cell-based, mouse; conditions: wild type motor neurons in ESMN with BMAA at 0.1-100 μM; FIG. 4
Protocol: Briefly, mouse embryonic stem cells are cultured and differentiated into motor neurons, during an eight-day period. The first day, previously frozen mouse embryonic stem cells are thawed and added to a 15 mL falcon tube with five mL of embryonic stem cell medium (ES medium: DMEM with 15% FBS, 1% pen/strep., 1% glutamine, 1% non-essential amino acids, 1% nucleosides, 0.1% β-mercaptoethanol, 1% sodium-pyruvate, and LIF at 10000 unit/mL), The tube is then centrifuged for five minutes at 800 rpm. The supernatant is aspirated and the cells suspended in 10 mL of ES medium. The cells are then plated on a T75 flask that is coated with 10 mL of 0.1% gelatin and incubated for 30 minutes at 37° C. to facilitate attachment to the flask bottom. The cells are then incubated overnight. The following day the medium exchanged with fresh medium for survival.
The following day medium is aspirated from the flask. The flask is washed with 10 mL of PBS, and then 5 mL of trypsin is added to detach the cells from the bottom of the flask. The cells are incubated for five minutes at 37° C. Detachment is confirmed by checking the flask under a microscope. […]
After three days embryoid bodies (EB) that form are dissociated. […] The cells are then counted using a Countess automatic cell counter (Life Technologies) and 0.5 to 1 million cells are plated with 2 mL ESMN medium per well in each six well plate. […]

[2] = tested on: C9orf72−/− motor neurons; assay: Oxidative stress (ROS, CellROX Green) of cultured C9orf72−/− motor neurons exposed to BMAA; format: cell-based, mouse; conditions: 100 mM BMAA, measured at days 1 and 7, FIG. 7
Protocol: In another experiment, motor neurons from C9orfF72^−/− mice were cultured as described above (see also FIG. 7) and treated with antisense oligonucleotides that selectively target sense strand repeat-containing RNAs and reduce sense-oriented RNA foci without affecting overall C9orf72 expression. Treatment was followed by addition of 100 mM BMAA. Survival and oxidative stress of cultured motor neurons were measured at days 1 and 7. Briefly, oxidative stress of plated embryonic stem cell-derived motor neurons (described above) was assessed by measuring the Reactive Oxygen Species (ROS) levels in the cells using Life Technologies' CellROX Oxidative Stress Green reagent at a final concentration of 5 μM and incubating for 30 minutes at 37° C. After incubation, cells were washed three times with PBS and fluorescence was measured using a standard microplate fluorometry.

[3] = tested on: wild type mice; assay: ALS-like phenotype in wild type mice given weekly i.p. BMAA (body weight, rotarod, open field, catwalk); format: in vivo, mouse; conditions: BMAA 500 mg/kg weekly i.p. for six weeks, FIGS. 5A-5D
Protocol: In another experiment, wild type mice were administered weekly i.p. injections of BMAA (500 mg/kg) or PBS (control) for six weeks starting at week 1 (FIG. 5A, top). Body weight measurements were recorded each week up to 6 weeks, week 14 and week 18. Analysis of motor impairment via rotarod, open field locomotor, and catwalk testing (as described above) were recorded at the start of the experiment (week 0, 10-weeks old), every other week up to 6 weeks, week 14 and week 18.

[4] = tested on: C9orf72−/− mice; assay: ALS-like phenotype in aged C9orf72−/− mice given weekly i.p. BMAA (body weight, motor scores, rotarod, open field, catwalk); format: in vivo, mouse; conditions: 32-week old C9orf72−/− mice, BMAA 500 mg/kg weekly i.p. for six weeks; FIGS. 6A-6E
Protocol: In another experiment, aged (i.e., 32-week old) wild type and C9orf72^−/− mice were administered weekly i.p. injections of BMAA (500 mg/kg) or PBS (control) for six weeks. Body weight measurements were recorded each week up to 38 weeks starting at day zero (i.e., 32 weeks). Analysis of motor impairment via rotarod, open field locomotor, and catwalk testing (as described above) were also recorded at the start of the experiment (week 0, […]) and every other week up to 38 weeks. Table 6 sets forth the scoring methodology related to motor impairment, tremor and rigidity of animals during testing.

CNC[C@H](N)C(=O)O [BMAA, β-Methylamino-L-alanine]
survival of cultured motor neurons (percentage of live neurons to control) [1]: kills cultured wild type motor neurons in a dose-dependent manner
oxidative stress (Reactive Oxygen Species levels) [2]: increased oxidative stress
induction of ALS-like phenotype [3]: did not induce an ALS-like phenotype
effect on ALS-like motor phenotype [4]: mildly exacerbates
effect on increased inactivity and gait abnormalities [4]: does not affect
